From ChEMBL document CHEMBL4680277, “Targeting Metabolism of Extracellular Nucleotides via Inhibition of Ectonucleotidases CD73 and CD39” (J Med Chem, 2020)

How the values were obtained:
[1] = biological target: T1, Ectonucleoside triphosphate diphosphohydrolase 8 (Homo sapiens, UniProt Q5MY95); assay: Inhibition of human NTPDase8 expressed in green monkey Cos-7 cells using ATP as substrate preincubated for 3 mins followed by substrate addition by malachite green reagent based assay; type: cell-based
T1 sequence (Q5MY95 whole entry): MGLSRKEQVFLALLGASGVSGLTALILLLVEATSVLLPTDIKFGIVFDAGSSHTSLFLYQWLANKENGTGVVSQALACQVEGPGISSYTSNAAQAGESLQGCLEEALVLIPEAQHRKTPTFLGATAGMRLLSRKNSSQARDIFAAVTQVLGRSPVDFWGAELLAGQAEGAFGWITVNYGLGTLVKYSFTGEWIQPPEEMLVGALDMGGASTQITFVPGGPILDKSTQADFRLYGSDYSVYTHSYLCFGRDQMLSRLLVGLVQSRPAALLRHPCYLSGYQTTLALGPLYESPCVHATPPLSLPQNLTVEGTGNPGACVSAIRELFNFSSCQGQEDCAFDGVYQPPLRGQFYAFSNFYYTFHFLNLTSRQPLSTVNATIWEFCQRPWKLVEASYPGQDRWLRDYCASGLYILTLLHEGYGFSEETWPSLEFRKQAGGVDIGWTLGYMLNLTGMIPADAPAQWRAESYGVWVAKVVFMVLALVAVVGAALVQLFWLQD

[2] = biological target: T2, Ectonucleoside triphosphate diphosphohydrolase 1 (Mus musculus, UniProt P55772); assay: Inhibition of mouse CD39 expressed in green monkey Cos-7 cells using ATP as substrate preincubated for 3 mins followed by substrate addition by malachite green reagent based assay; type: cell-based
T2 sequence (P55772 whole entry): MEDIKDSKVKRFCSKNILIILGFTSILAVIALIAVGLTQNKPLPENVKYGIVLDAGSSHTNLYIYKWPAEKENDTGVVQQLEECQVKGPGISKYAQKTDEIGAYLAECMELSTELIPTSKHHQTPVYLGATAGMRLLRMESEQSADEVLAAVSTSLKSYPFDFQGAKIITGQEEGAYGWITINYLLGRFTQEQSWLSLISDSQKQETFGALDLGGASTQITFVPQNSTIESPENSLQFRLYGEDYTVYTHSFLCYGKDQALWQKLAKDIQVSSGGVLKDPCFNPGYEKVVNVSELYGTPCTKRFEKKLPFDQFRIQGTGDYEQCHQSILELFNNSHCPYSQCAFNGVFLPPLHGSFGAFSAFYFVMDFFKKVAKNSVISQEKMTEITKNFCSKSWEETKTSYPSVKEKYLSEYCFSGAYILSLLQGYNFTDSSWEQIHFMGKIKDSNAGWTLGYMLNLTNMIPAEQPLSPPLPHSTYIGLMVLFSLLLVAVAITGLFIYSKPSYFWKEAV

[3] = Selectivity ratio of Ki for rat NTPDase3 expressed in CHO cells to Ki for rat CD39 expressed in CHO cells
[4] = Inhibition of rat NTPDase3 expressed in CHO cells using ATP as substrate incubated for 10 mins by UV absorbance method; type: cell-based
[5] = biological target: T3, Ectonucleoside triphosphate diphosphohydrolase 2 (Rattus norvegicus, UniProt O35795); assay: Inhibition of rat NTPDase2 expressed in CHO cells using ATP as substrate incubated for 10 mins by UV absorbance method; type: cell-based; details: cho
T3 sequence (O35795 whole entry): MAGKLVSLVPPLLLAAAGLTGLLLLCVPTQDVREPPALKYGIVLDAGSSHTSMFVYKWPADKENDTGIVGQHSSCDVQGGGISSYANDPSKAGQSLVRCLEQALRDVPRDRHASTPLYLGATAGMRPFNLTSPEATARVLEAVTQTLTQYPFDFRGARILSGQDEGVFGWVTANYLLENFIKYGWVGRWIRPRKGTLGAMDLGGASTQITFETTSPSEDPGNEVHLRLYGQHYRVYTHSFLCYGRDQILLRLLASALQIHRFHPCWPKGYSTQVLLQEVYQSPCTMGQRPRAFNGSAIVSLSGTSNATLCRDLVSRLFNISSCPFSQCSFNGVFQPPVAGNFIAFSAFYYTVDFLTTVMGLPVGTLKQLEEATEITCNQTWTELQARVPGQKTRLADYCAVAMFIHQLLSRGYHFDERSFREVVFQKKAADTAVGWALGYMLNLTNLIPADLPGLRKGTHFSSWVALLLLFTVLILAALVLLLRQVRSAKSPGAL

[6] = biological target: T4, Ectonucleoside triphosphate diphosphohydrolase 1 (Rattus norvegicus, UniProt P97687); assay: Inhibition of rat CD39 expressed in CHO cells using ATP as substrate incubated for 10 mins by UV absorbance method; type: cell-based; details: cho
T4 sequence (P97687 whole entry): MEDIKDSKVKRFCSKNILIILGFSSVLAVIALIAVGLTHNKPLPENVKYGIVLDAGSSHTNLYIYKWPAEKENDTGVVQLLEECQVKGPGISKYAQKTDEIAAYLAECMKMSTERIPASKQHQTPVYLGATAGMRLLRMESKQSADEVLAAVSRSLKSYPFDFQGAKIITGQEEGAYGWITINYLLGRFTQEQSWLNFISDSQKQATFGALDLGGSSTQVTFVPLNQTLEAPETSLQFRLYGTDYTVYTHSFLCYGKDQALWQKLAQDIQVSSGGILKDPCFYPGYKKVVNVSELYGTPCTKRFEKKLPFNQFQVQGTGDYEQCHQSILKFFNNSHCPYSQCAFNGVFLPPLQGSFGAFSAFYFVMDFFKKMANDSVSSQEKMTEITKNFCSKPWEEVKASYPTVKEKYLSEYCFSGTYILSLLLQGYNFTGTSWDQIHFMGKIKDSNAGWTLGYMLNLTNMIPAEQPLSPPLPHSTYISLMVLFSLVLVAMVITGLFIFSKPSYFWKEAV

[7] = Selectivity ratio of Ki for rat NTPDase2 expressed in CHO cells to Ki for rat CD39 expressed in CHO cells
[8] = biological target: T5, Ectonucleoside triphosphate diphosphohydrolase 3 (Homo sapiens, UniProt O75355); assay: Competitive inhibition of human NTPDase3 using ATP as substrate preincubated for 3 mins followed by substrate addition and measured after 15 mins by Dixon and Cornish-Bowden plot analysis
T5 sequence (O75355 whole entry): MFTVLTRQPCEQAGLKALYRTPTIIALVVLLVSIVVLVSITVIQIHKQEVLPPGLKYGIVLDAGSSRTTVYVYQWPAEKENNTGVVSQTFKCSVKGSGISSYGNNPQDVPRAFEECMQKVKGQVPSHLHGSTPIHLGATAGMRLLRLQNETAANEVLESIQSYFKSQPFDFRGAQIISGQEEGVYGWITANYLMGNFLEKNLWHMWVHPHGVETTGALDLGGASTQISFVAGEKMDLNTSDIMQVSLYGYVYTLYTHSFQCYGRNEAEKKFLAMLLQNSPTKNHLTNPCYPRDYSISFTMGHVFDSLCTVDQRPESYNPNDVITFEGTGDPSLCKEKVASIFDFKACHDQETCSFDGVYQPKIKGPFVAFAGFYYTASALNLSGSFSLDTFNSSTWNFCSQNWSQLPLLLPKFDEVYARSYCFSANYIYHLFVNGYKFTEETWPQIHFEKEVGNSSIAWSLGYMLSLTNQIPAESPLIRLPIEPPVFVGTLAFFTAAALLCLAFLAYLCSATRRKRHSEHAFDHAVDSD

Cc1ccc(C(=O)Nc2ccc(S(=O)(=O)O)c3cc(S(=O)(=O)O)cc(S(=O)(=O)O)c23)cc1NC(=O)c1cccc(NC(=O)Nc2cccc(C(=O)Nc3cc(C(=O)Nc4ccc(S(=O)(=O)O)c5cc(S(=O)(=O)O)cc(S(=O)(=O)O)c45)ccc3C)c2)c1 [SURAMIN]
IC50 [1]: > 100 µM
IC50 [2]: > 100 µM

Nc1c(S(=O)(=O)[O-])cc(Nc2ccc3ccccc3c2)c2c1C(=O)c1ccccc1C2=O.[Na+]
Ratio Ki [3]: 7
Ki [4]: 2.22 µM
Ki [5]: 19.1 µM
Ki [6]: 0.328 µM
Ratio Ki [7]: 58

CCN(CC)c1ncnc2c1ncn2[C@@H]1O[C@H](COP(=O)(O)OP(=O)(O)C(Br)(Br)P(=O)(O)O)[C@@H](O)[C@H]1O
Ki [8]: 18 µM
